Source: patent US10189839B2, “Tricyclic imidazole compounds as inhibitors of tryptophan hydroxylase” (ACTELION PHARMACEUTICALS LTD, priority 2013, dated 2019)

Molecular target: T1, full length human TPH1 (Homo sapiens, UniProt P17752)
T1 construct: To generate the enzyme, full length human TPH1 is cloned into the plasmid pET20b(+); made in house; host or cells: E. coli
T1 sequence (P17752 1-444): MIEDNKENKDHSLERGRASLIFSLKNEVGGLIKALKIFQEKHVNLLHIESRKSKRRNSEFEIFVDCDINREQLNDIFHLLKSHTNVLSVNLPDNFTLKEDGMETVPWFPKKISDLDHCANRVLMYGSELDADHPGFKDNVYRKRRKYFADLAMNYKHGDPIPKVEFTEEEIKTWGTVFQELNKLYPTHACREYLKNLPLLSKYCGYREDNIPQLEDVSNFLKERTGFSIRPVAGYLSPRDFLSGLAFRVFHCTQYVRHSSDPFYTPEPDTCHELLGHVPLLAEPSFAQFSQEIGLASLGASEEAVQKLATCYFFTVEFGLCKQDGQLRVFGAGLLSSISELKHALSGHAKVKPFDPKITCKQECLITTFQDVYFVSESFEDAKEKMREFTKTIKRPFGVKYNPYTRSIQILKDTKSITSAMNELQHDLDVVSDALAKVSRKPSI
Experiment: Biochemical in vitro assay using fluorescence readout (TPH1 enzyme activity)
Outline: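 E. coli-expressed full-length human TPH1 (40-80 nM), affinity- and size-exclusion-purified, incubated 60 min at 15° C. in 0.1M Tris-HCl pH 7.6 with 1 mM DTT, 0.2 mg/ml catalase, 100 μM 6-methyltetrahydropterine and 40 μM L-tryptophan. 5-Hydroxy-L-tryptophan read by fluorescence (ex 300/em 540 nm) after HClO4 quench; IC50 versus vehicle, mean where repeated.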

[1] = Table 1, mean where determined several times

Row | SMILES | IC50 (Table 2) [nM] | IC50 [1] [nM]
1 | CNC(=O)c1csc(C2c3c(nc4n3CCCC4)CCN2C(=O)COc2ccc(NS(C)(=O)=O)nc2Cl)n1 (stereo not shown) [Example 1.7.1, 2-(2-(2-((2-Chloro-6-(methylsulfonamido)pyridin-3-yl)oxy)acetyl)-1,2,3,4,6,7,8,9-octahydroimidazo[1,2-a:5,4-c′]dipyridin-1-yl)-N-methylthiazole-4-carboxamide] | 844 | 
2 | Cc1nc(C(F)(F)F)sc1C1c2c(nc3n2CCCC3)CCN1C(=O)COc1ccc(NS(C)(=O)=O)nc1Cl (stereo not shown) [Example 1.18.1, N-(6-chloro-5-(2-(1-(4-methyl-2-(trifluoromethyl)thiazol-5-yl)-3,4,6,7,8,9-hexahydroimidazo[1,2-a:5,4-c′]dipyridin-2(1H)-yl)-2-oxoethoxy)pyridin-2-yl)methanesulfonamide] |  | 126
3 | CC(=O)N1CCn2c(nc3c2C(c2ncc(C4CC4)cc2F)N(C(=O)COc2ccc(N4CCOCC4)nc2F)CC3)C1 (stereo not shown) [Example 5.4.8, 1-(7-acetyl-1-(5-cyclopropyl-3-fluoropyridin-2-yl)-3,4,6,7,8,9-hexahydropyrido[4′,3′:4,5]imidazo[1,2-a]pyrazin-2(1H)-yl)-2-((2-fluoro-6-morpholinopyridin-3-yl)oxy)ethanone] |  | 91
4 | CC(=O)N1CCn2c(nc3c2C(c2ncccc2F)N(C(=O)COc2ccc(N4CCOCC4)nc2Cl)CC3)C1 (stereo not shown) [Example 5.10.1, 1-(7-acetyl-1-(3-fluoropyridin-2-yl)-3,4,6,7,8,9-hexahydropyrido[4′,3′:4,5]imidazo[1,2-a]pyrazin-2(1H)-yl)-2-((2-chloro-6-morpholinopyridin-3-yl)oxy)ethanone] |  | 14
5 | Cc1ccc(C2c3c(nc4n3CCCC4)CCN2C(=O)COc2ccc(NS(C)(=O)=O)nc2Cl)c(F)c1 (stereo not shown) [Example 1.2.1, N-(6-chloro-5-(2-(1-(2-fluoro-4-methylphenyl)-3,4,6,7,8,9-hexahydroimidazo[1,2-a:5,4-c′]dipyridin-2(1H)-yl)-2-oxoethoxy)pyridin-2-yl)methanesulfonamide] |  | 41
6 | CN(C)S(=O)(=O)c1ccc(OCC(=O)N2CCc3nc4n(c3C2c2ccc(Cl)cc2F)CCCC4)c(Cl)n1 (stereo not shown) [Example 1.1.29, 6-chloro-5-(2-(1-(4-chloro-2-fluorophenyl)-3,4,6,7,8,9-hexahydroimidazo[1,2-a:5,4-c′]dipyridin-2(1H)-yl)-2-oxoethoxy)-N,N-dimethylpyridine-2-sulfonamide] |  | 129
7 | CCc1nc(NS(C)(=O)=O)ccc1OCC(=O)N1CCc2nc3n(c2C1c1scnc1C)CCCC3 (stereo not shown) [Example 1.13.1, N-(6-ethyl-5-(2-(1-(4-methylthiazol-5-yl)-3,4,6,7,8,9-hexahydroimidazo[1,2-a:5,4-c′]dipyridin-2(1H)-yl)-2-oxoethoxy)pyridin-2-yl)methanesulfonamide207] |  | 44
8 | Cc1cnc(C2c3c(nc4n3CCCC4)CCN2C(=O)COc2ccc(C(=O)N(C)C)nc2Cl)c(F)c1 (stereo not shown) [Example 1.6.4, 6-chloro-5-(2-(1-(3-fluoro-5-methylpyridin-2-yl)-3,4,6,7,8,9-hexahydroimidazo[1,2-a:5,4-c′]dipyridin-2(1H)-yl)-2-oxoethoxy)-N,N-dimethylpicolinamide] |  | 33
9 | CS(=O)(=O)Nc1ccc(OCC(=O)N2CCc3nc4n(c3C2c2ccc(C#N)cc2F)CCCC4)c(Cl)n1 (stereo not shown) [Example 1.22.1, N-(6-chloro-5-(2-(1-(4-cyano-2-fluorophenyl)-3,4,6,7,8,9-hexahydroimidazo[1,2-a:5,4-c′]dipyridin-2(1H)-yl)-2-oxoethoxy)pyridin-2-yl)methanesulfonamide] |  | 48
10 | CCc1nc(NS(C)(=O)=O)ncc1OCC(=O)N1CCc2nc3n(c2C1c1ccc(C)c(F)c1F)CCCC3 (stereo not shown) [Example 1.9.9, N-(5-(2-(1-(2,3-difluoro-4-methylphenyl)-3,4,6,7,8,9-hexahydroimidazo[1,2-a:5,4-c′]dipyridin-2(1H)-yl)-2-oxoethoxy)-4-ethylpyrimidin-2-yl)methanesulfonamide] |  | 58
11 | Cc1cnc(C2c3c(nc4n3CCCC4)CCN2C(=O)COc2ccc(-c3ncco3)nc2Cl)c(F)c1 (stereo not shown) [Example 1.6.2, 2-((2-chloro-6-(oxazol-2-yl)pyridin-3-yl)oxy)-1-(1-(3-fluoro-5-methylpyridin-2-yl)-3,4,6,7,8,9-hexahydroimidazo[1,2-a:5,4-c′]dipyridin-2(1H)-yl)ethanone] |  | 41
12 | CCN(C)C(=O)c1ccc(OCC(=O)N2CCc3nc4n(c3C2c2ccc(Cl)cc2F)CCCC4)c(Cl)n1 (stereo not shown) [Example 1.1.7, 6-chloro-5-(2-(1-(4-chloro-2-fluorophenyl)-3,4,6,7,8,9-hexahydroimidazo[1,2-a:5,4-c′]dipyridin-2(1H)-yl)-2-oxoethoxy)-N-ethyl-N-methylpicolinamide] |  | 25
13 | CS(=O)(=O)Nc1ccc(OCC(=O)N2CCc3nc4n(c3C2c2ccc(OCCO)cc2F)CCCC4)c(Cl)n1 (stereo not shown) [Example 1.28.2, N-(6-chloro-5-(2-(1-(2-fluoro-4-(2-hydroxyethoxy)phenyl)-3,4,6,7,8,9-hexahydroimidazo[1,2-a:5,4-c′]dipyridin-2(1H)-yl)-2-oxoethoxy)pyridin-2-yl)methanesulfonamide] |  | 21

Further lines, results first:

Row | IC50 (Table 2) [nM] | IC50 [1] [nM] | SMILES
14 |  | 10 | CCc1nc(N2CCCS2(=O)=O)ccc1OCC(=O)N1CCc2nc3n(c2C1c1sc(C)nc1C)CCS3 (stereo not shown) [Example 4.5.2, 1-(5-(2,4-dimethylthiazol-5-yl)-2,3,7,8-tetrahydrothiazolo[2′,3′:2,3]imidazo[4,5-c]pyridin-6(5H)-yl)-2-((6-(1,1-dioxidoisothiazolidin-2-yl)-2-ethylpyridin-3-yl)oxy)ethanone]
15 |  | 9 | CCc1nc(C(=O)NC2CC2)ccc1OCC(=O)N1CCc2nc3n(c2C1c1ccc(C)c(F)c1F)CCCC3 (stereo not shown) [Example 1.9.10, N-cyclopropyl-5-(2-(1-(2,3-difluoro-4-methylphenyl)-3,4,6,7,8,9-hexahydroimidazo[1,2-a:5,4-c′]dipyridin-2(1H)-yl)-2-oxoethoxy)-6-ethylpicolinamide]
16 |  | 8 | CCc1nc(N2CCCS2(=O)=O)ccc1OCC(=O)N1CCc2nc3n(c2C1c1ccc(Cl)cc1F)CCC3 (stereo not shown) [Example 2.1.3, 1-(1-(4-chloro-2-fluorophenyl)-3,4,7,8-tetrahydro-1H-pyrrolo[2′,1′:2,3]imidazo[4,5-c]pyridin-2(6H)-yl)-2-((6-(1,1-dioxidoisothiazolidin-2-yl)-2-ethylpyridin-3-yl)oxy)ethanone]
17 |  | 5 | CC(=O)N1CCn2c(nc3c2C(c2ccc(C4CC4)cc2F)N(C(=O)COc2ccc(N4CCOCC4)nc2Cl)CC3)C1 (stereo not shown) [Example 5.2.8, 1-(7-acetyl-1-(4-cyclopropyl-2-fluorophenyl)-3,4,6,7,8,9-hexahydropyrido[4′,3′:4,5]imidazo[1,2-a]pyrazin-2(1H)-yl)-2-((2-chloro-6-morpholinopyridin-3-yl)oxy)ethanone]
18 |  | 7 | CCc1nc(C(=O)NC2CC2)ccc1OCC(=O)N1CCc2nc3n(c2C1c1ncc(C2CC2)cc1F)CCCC3 (stereo not shown) [Example 1.3.2, N-cyclopropyl-5-(2-(1-(5-cyclopropyl-3-fluoropyridin-2-yl)-3,4,6,7,8,9-hexahydroimidazo[1,2-a:5,4-c′]dipyridin-2(1H)-yl)-2-oxoethoxy)-6-ethylpicolinamide]
19 |  | 6 | CCc1nc(NS(C)(=O)=O)ccc1OCC(=O)N1CCc2nc3n(c2C1c1ccc(C2CC2)cc1F)CCS3 (stereo not shown) [Example 4.3.1, N-(5-(2-(5-(4-cyclopropyl-2-fluorophenyl)-2,3,7,8-tetrahydrothiazolo[2′,3′:2,3]imidazo[4,5-c]pyridin-6(5H)-yl)-2-oxoethoxy)-6-ethylpyridin-2-yl)methanesulfonamide]
